Data taken from patent US20090253634A1, “Methods and Compositions for the Treatment of Gastrointestinal Disorders” (MICROBIA, INC., priority 2005, published 2009).
Bridge positions count the residues as written; N and C are the ends. Peptide text beside a SMILES is read from it.

Key:
[1] = system: carboxypeptidase A; assay: in vitro proteolytic stability: carboxypeptidase A
Method: The stability of SEQ ID NO:3 in the presence of several mammalian digestive enzymes was determined. SEQ ID NO:3 was exposed to a variety of in vitro conditions including digestive enzymes and low ph environments designed to simulate gastric fluid. SEQ ID NO:3 was incubated with chymotrypsin, trypsin, pepsin, aminopeptidase, carboxypeptidase A, and simulated gastric fluid (sgf) at ph 1.0. Samples were collected at 0, 3, and 24 h for all conditions except pepsin digestion and the SGF. For the latter two conditions, samples were obtained at 0, 1, and 3 h. Negative control samples were prepared for initial and final time points. A separate, positive activity control was run in parallel to SEQ ID NO:3. All samples were analyzed by LC/MS
Five (5) μL of a 40 μg/mL carboxypeptidase inhibitor (carboxypeptidase inhibitor from potato tuber (Sigma-Aldrich, C0279) stock was added to each control sample (0 and 24 h), for a final concentration of 0.4 μg/mL. All control and test (0, 3 and 24 h) samples were incubated at 37° C. for 5 min. Twenty (20) μL of a 0.01 mg/mL carboxypeptidase A (Carboxypeptidase A from human pancreas; Sigma-Aldrich, C5358) stock was added to each sample. The samples were returned to the 37° C. water bath. The reaction was quenched with 5 μL of a 40 μg/mL carboxypeptidase inhibitor at the proper time point. No extra carboxypeptidase inhibitor was added to the control samples since there was already inhibitor present. Samples were subsequently flash frozen in liquid nitrogen, and stored at −80° C. until analysis. Upon analysis, samples were thawed and transferred to a 1 mL 96-well deep microtiter plate. […] These standards were used to generate a standard curve for quantification of samples. When necessary, the standard curves were also used to calculate the concentration of the corresponding digestion product. Ten (10) μL injections were made of each sample and standard. […] For the SEQ.
To further study the SEQ ID NO:3 carboxypeptidase A digestion product, samples of 0.01 mg/mL SEQ ID NO:3 were prepared in the carboxypeptidase A reaction buffer at a total volume of 500 μL in 2 mL eppendorf tubes. Triplicate samples were prepared for the following time points: 0, 15, 30, 60, 120, 180 and 240 min. The samples were incubated at 37° C. for 5 min. Twenty (20) μL of a 0.01 mg/mL carboxypeptidase A stock were added to each sample and returned to the 37° C. water bath. The reactions were quenched with 5 μL of a 40 μg/mL carboxypeptidase inhibitor at the proper time points. Samples were subsequently flash frozen in liquid nitrogen, and stored at −80° C. until analysis. Upon analysis, samples were thawed and transferred to a 1 mL 96-well plate. Standards of SEQ ID NO:3 were prepared in carboxypeptidase A reaction buffer at 0.625, 1.25, 2.50, 5.00, and 10.00 μg/mL concentrations. These standards were used to generate a standard curve for quantification of samples. When necessary, the standard curves were also used to calculate the concentration of the corresponding digestion product. Ten (10) μL injections were made of each sample and standard. If the formation of a digestion product was evident, then a spectral analysis was used to determine the mass of the digestion product, and predict its possible identity.

[2] = stability in simulated gastric fluid (SGF); format: in vitro ADME; details: pH 1, 37° C., up to 3 h
Method: All samples were analyzed by LC/MS
The reference control sample was diluted 10-fold (1000 μL volume) in distilled water for a final concentration of 10 μM and chilled on ice. At each time point, samples were diluted 10-fold (1000 μL volume) in distilled water for an expected concentration of 10 μM, and chilled on ice, until analysis.

[3] = biological target: T1, guanylate cyclase C (Mus musculus, UniProt Q3UWA6); assay: competition binding assay on intestinal epithelial cells of wild-type and GC-C KO mice; details: GC-C KO mice compared to wild-type mice; 125I-SEQ ID NO:3
T1 construct: isolated intestinal epithelial cells from two female wild-type and two female GC-C KO mice; from tissue; host or cells: mouse intestinal epithelial cells (homogenised), wild-type; GC-C KO mice as control
T1 sequence (Q3UWA6 20-1072): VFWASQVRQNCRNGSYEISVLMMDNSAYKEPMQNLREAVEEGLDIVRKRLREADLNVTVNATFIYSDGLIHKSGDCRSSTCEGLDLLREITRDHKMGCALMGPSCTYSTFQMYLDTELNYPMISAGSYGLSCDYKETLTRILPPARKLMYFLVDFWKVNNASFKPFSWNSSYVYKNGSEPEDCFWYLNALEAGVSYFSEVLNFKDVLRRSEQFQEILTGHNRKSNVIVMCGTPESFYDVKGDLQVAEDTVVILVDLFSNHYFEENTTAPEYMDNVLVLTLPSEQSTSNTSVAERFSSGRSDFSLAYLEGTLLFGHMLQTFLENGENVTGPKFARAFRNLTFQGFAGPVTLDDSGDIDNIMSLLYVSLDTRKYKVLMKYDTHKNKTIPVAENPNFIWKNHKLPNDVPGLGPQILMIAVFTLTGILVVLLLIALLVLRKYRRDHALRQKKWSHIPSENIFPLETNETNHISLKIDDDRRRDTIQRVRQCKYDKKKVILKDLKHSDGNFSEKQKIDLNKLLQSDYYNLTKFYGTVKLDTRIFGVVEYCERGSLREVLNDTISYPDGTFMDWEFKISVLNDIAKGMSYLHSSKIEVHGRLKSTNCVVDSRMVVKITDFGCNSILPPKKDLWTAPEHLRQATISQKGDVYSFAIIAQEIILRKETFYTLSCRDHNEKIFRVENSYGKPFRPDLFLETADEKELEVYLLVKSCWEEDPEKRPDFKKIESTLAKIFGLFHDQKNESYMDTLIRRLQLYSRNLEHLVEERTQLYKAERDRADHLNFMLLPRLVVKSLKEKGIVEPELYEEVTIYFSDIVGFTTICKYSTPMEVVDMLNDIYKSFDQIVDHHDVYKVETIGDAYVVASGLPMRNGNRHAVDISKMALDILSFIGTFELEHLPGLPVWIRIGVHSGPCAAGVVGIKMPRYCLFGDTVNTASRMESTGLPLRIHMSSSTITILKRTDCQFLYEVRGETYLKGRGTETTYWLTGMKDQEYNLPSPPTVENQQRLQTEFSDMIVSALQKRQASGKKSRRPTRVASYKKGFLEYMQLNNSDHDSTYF
Method: Mouse intestinal epithelial cells were prepared identical to that above as for rat intestinal epithelial cells except the cells were homogenized with an Omni homogenizer for 20 seconds on the maximum setting to make a suspension of cells. A competition binding assay was performed identical to that described above between ^125I labeled SEQ ID NO:3 and unlabeled SEQ ID NO:3 (competitor).

[4] = system: PBQ-induced writhing; assay: phenylbenzoquinone (PBQ)-induced writhing model

Compound: C[C@@H]1NC(=O)[C@@H]2CCCN2C(=O)[C@H](CC(N)=O)NC(=O)[C@@H]2CSSC[C@H](N)C(=O)N[C@H]3CSSC[C@H](NC1=O)C(=O)N[C@@H]([C@@H](C)O)C(=O)NCC(=O)N[C@H](C(=O)N[C@@H](Cc1ccc(O)cc1)C(=O)O)CSSC[C@H](NC(=O)[C@H](Cc1ccc(O)cc1)NC(=O)[C@H](CCC(=O)O)NC3=O)C(=O)N2 [SEQ ID NO:3] (H-CCEYCCNPACTGCY-OH; disulfide 1-6, 2-10, 5-13; N-terminus and C-terminus assumed)
- Cleavage of SEQ ID NO: 3 by proteolytic substance ([1]; Carboxypetidase A, 37° C., up to 24 h): Yes
- SEQ ID NO:3 average concentration ([1]; T0, carboxypeptidase A time course): 5115 (+/−121) nM
- SEQ ID NO:3 average concentration ([1]; T240 (240 min)): 4438 (+/−188) nM
- average calculated SEQ ID NO:3 product concentration ([1]; T24 h samples): 1.3 (+/−0.04) μg/mL
- SEQ ID NO:3 calculated concentration ([1]; all samples (0, 3, 24 h and controls)): 8.4 (+/−1.2) μg/mL
- calculated concentration of the SEQ ID NO:3 products ([1]; time 0 control (with inhibitor)): 0.8 (+/−0.02) μg/mL
- calculated concentration of the SEQ ID NO:3 products ([1]; time 0 samples): 0.8 (+/−0.01) μg/mL
- Cleavage of SEQ ID NO: 3 by proteolytic substance [2]: not detectable
- binding to intestinal epithelial cells [3]: reduction in SEQ ID NO:3 binding
- writhings versus vehicle control ([4]; 2.5 mg/kg dose, oral): Significant reductions in writhings
- antinociceptive effect compared with indomethacin ([4]; PBQ writhing assay): antinociceptive effects in this visceral pain model comparable to the intermediate doses of indomethacin

Compound: C[C@@H]1NC(=O)[C@@H]2CCCN2C(=O)[C@H](CC(N)=O)NC(=O)[C@@H]2CSSC[C@H](N)C(=O)N[C@H]3CSSC[C@H](NC1=O)C(=O)N[C@@H]([C@@H](C)O)C(=O)NCC(=O)N[C@H](C(=O)O)CSSC[C@H](NC(=O)[C@H](Cc1ccc(O)cc1)NC(=O)[C@H](CCC(=O)O)NC3=O)C(=O)N2 [SEQ ID NO:6] (H-CCEYCCNPACTGC-OH; disulfide 1-6, 2-10, 5-13)
- average concentration of SEQ ID NO:6 (digestion product of SEQ ID NO:3) ([1]; T0): 108 (+/−2) nM
